Reference: patent publication US20190224222A1, “METHOD OF INHIBITING QUORUM SENSING USING D-GALACTOSE” (Seoul National University R&DB Foundation, priority 2014, published 2019)

Test system: S. mutans (Sm) biofilm
Assay: S. mutans biofilm formation, crystal violet staining
Assay type: cell-based, Streptococcus mutans (ATCC 25175)
Settings: D-gal 2 mM
Procedure: 2 mL (2×10^7/ml) of the culture broth of a representative cariogenic bacterium S. mutans (Sm) and 2 mL (2×10^7/ml) of the culture broth of one of normal oral flora, S. oxalis (SO) were added to a saliva-coated glass slip (round, 12 mm radius), respectively and cultured with 0 mM or 2 mM of D-galactose to form biofilms. The formed biofilms were stained with crystal violet in the same manner as in Examples 3-6 to test biofilm formation according to the presence of D-galactose. Further, the biofilms were stained with fluorescent materials using the live/dead-BacLight viability kit (Invitrogen, Grand Island, N.Y., USA), followed by analysis. For comparison, 2 μM of the furanone compound was used instead of D-galactose to perform the same test.

With O=C[C@H](O)[C@@H](O)[C@@H](O)[C@H](O)CO [D-gal, D-galactose] the OD590 nm (Sm on saliva-coated glass slip, Sm control 0.48) was 0.37 and the “inhibitory effect on Sm biofilm formation, in words” value (crystal violet, furanone compound 2 μM) was “significant inhibitory effect”.
